Here are results for two compounds from patent US8569378B2, “p27 protein inducer” (Chugai Seiyaku Kabushiki Kaisha, priority 2007, dated 2013).

SMILES strings stand for the structures.

Test [1] deals with p27 protein. In words: Detection of p27 protein by Western blotting in DU-145 cell lysate. Type of test: cell-based. As to conditions: DU-145 human prostate cancer cells; 0.3-30 μmol/L; 48 hours; FIG. 2. On the procedure:
(§1) The p27 protein-inducing activities of KIP-10 (the compound represented by formula (C)) and KIP-12 (the compound represented by formula (D)) were measured as follows.
(§2) Preparation of Cell Lysate:
(§3) NCI-H460 human non-small cell lung cancer cells (ATCC HTB-177), DU-145 human prostate cancer cells (ATCC HTB-81) or HCT116 human colon cancer cells (ATCC CCL-247) were plated in 6-well plates at 2×10^5 cells/well and incubated overnight. Then, the test substance was added to the medium to a final concentration of 0.3 μmol/L, 1 μmol/L, 3 μmol/L, 10 μmol/L or 30 μmol/L or was not added and the cells were incubated at 37° C. in 5% CO2 for 48 or 24 hours. The cells were washed with cold PBS(−), which was then completely removed. 0.35 mL of Cell Lysis Buffer (catalog no. 9803, Cell Signaling) which had been diluted to 1-fold concentration was added, and the mixture was allowed to stand on ice for 10 minutes. The Cell Lysis Buffer in which cells were lysed was collected together with cells and subjected to sonication (speed 1, duty 80) for 10 seconds. […]
(§4) The total protein concentration in the supernatant was determined with a DC Protein Kit (catalog no. 500-0122, Bio-Rad). […] After washing three times with TBS-T, it was immersed in ECL kit reagent (catalog no. RPN2132, Amersham) for 1 minute and the band was detected with a chemiluminescence reader. […]

In test [2] the test system is p27 protein. In words: Detection of p27 protein by Western blotting in NCI-H460 cell lysate. The format is cell-based, human. The following applies: NCI-H460 cells; 0.3-30 μmol/L; KIP-10 48 hours, KIP-12 24 hours; FIGS. 1 and 3. On the procedure:
as §1, §2, §3, §4

Test [3] relates to p27 protein. Briefly: Quantification of p27 protein by ELISA (p27 protein-inducing activity, EC50). The format is cell-based, human. The following applies: NCI-H460 cells, 48 hours, p27 sandwich ELISA; Table 1-2. How it is done:
The p27 protein-inducing activities of the compounds or salts listed in Tables 1-1, 1-2 and 2 below were measured as follows.
as §2
NCI-H460 human non-small cell lung cancer cells (ATCC HTB-177) were plated in 6-well plates at 2×10^5 cells/well and incubated overnight. Then, the test substance was added to the medium to a final concentration of 10000 nmol/L, 3000 nmol/L, 100 nmol/L, 30 nmol/L, 10 nmol/L, 3 nmol/L, 1 nmol/L, 0.3 nmol/L, 0.1 nmol/L, 0.03 nmol/L or 0.01 nmol/L and the cells were incubated at 37° C. in 5% CO2 for 48 hours. 150 μL of Cell Lysis Buffer (catalog no. 9803, Cell Signaling) which had been diluted to 1-fold concentration (1 mM PMSF was added immediately before use) was added, and the mixture was allowed to stand on ice for 10 minutes. The Cell Lysis Buffer in which cells were lysed was collected together with cells with a scraper and transferred to a new tube. It was centrifuged at 15000 rpm for 10 minutes at 4° C. and the supernatant was then transferred to a new tube.
Quantification by Sandwich ELISA:
Anti-p27 monoclonal antibody (catalog no. 71-9600, Zymed) was diluted to 5 μg/mL in 50 mM carbonate coating buffer (0.4 g/L NaCO3, 0.73 g/L NaHCO3 and 0.04 g/L NaN3 in distilled water), and it was then added at 50 μL/well and allowed to stand overnight at 4° C. to bind the antibody. After washing three times with PBS, 200 μL of blocking solution (0.2% I-Block in PBS) was added to each well. After 1 hour of incubation at room temperature, washing with PBS-T (0.05% Tween 20 in PBS) was performed three times. The sample and recombinant p27 protein standard were serially diluted in Cell Lysis Buffer (catalog no. 9803, Cell Signaling) which had been diluted to 1-fold concentration (1 mM PMSF was added immediately before use), and it was then added at 100 μL/well. After 1 hour of incubation at room temperature, washing with 200 μL of PBS-T was performed three times. HRP-labeled anti-p27 antibody (product no. 610243, BD Transdution Laboratories) was diluted 1:2500 (i.e. to 0.1 μg/mL) in 0.2% I-Block/0.05% PBS-T, and it was then added at 100 μL/well. After 1 hour of incubation at room temperature, washing with 200 μL of PBS-T was performed three times. Chromogenic substrate solution (TMB One Solution, catalog no. G7431, Promega) was added at 100 μL/well and allowed to develop a color reaction at room temperature. After stopping the reaction with 50 μL of 1N H2SO4, the absorbance at 450 nm was measured.
Calculation of EC50 Values:
A standard response curve was generated by plotting the amount of p27 protein against the concentration of the test substance. The basal level of response was defined as 0%, while the plateau level where the induction of p27 protein had been maximized was defined as 100%. Finally, the test substance concentration at which 50% induction was achieved was calculated, and it was defined as EC50.

Test [4] has as its system p27 protein. Briefly: Detection of p27 protein by Western blotting in HCT116 cell lysate. Type of test: cell-based. As to conditions: HCT116 human colon cancer cells; 0.3-30 μmol/L; 24 hours; FIG. 4. On the procedure: as §1, §2, §3, §4

Take `Cc1c(Cc2ccccc2N)c(=O)oc2cc(OC(=O)N(C)C)c(Cl)cc12` [KIP-10, dimethylcarbamic acid 3-(2-aminobenzyl)-6-chloro-4-methyl-2-oxo-2H-1-benzopyran-7-yl ester]: the “p27 protein-inducing activity (Western blotting)” value with p27 protein [1] and in the test on p27 protein [2] was “sufficiently high p27 protein-inducing activity” in each case. In the test on p27 protein [3], this compound displayed an EC50 of 6 µM.

For the compound `Cc1nn(Cc2ccc(C(=O)Nc3nc4ccccc4s3)cc2)c(C)c1[N+](=O)[O-]` [KIP-12], the “p27 protein-inducing activity (Western blotting)” value in the test on p27 protein [4] and in the test on p27 protein [2] was “sufficiently high p27 protein-inducing activity” throughout.
